From US20260015632A1, “CULTURE MEDIUM COMBINATION FOR INDUCING DIFFERENTIATION OF PLURIPOTENT STEM CELLS INTO CD34+ HEMATOPOIETIC STEM/PROGENITOR CELLS” (SHENZHEN CELL INSPIRE BIOTECHNOLOGY CO., LTD., priority 2023, published 2026)

Key:
Assay type in all cases: cell-based, human
iPSCs [1] = assay: FACS proportion of CD34+ cells, additive in second differentiation medium; conditions: Day 12; 10 μM CHIR99021 or 0.75 μM SR1 added to second differentiation medium
Method: After 1 to 2 days of cell spheroidization, the medium was replaced with a second differentiation medium, and then the medium was changed every 2 days for 4 to 5 days of culture. The components of the second differentiation medium included: StemPro-34 complete medium supplemented with 1% ITS-X, 1 μM β-mercaptoethanol, 50 μg/mL ascorbic acid, 1× GlutaMAX, 50 ng/mL VEGF, 50 ng/mL bFGF, 50 ng/mL BMP4, and 35 nM UM171. At this stage, the cells can be transferred to a closed system for static culture or shaking culture.
After culturing for 3 days in the second differentiation medium, the medium was replaced with a third differentiation medium. The components of the third differentiation medium included: StemPro-34™ SFM complete medium supplemented with 1% ITS-X, 1 μM β-mercaptoethanol, 50 μg/mL ascorbic acid, 1× GlutaMAX, 50 ng/mL VEGF, 50 ng/mL bFGF, 50 ng/mL SCF, 10 ng/mL FLT3L, and 30 ng/mL TPO. The expression of CD34 or CD43, and CD44 was detected by FACS. […] The proportion and fold expansion of CD34^+ cells were detected at five time points: Day 8, Day 9, Day 10, Day 11, and Day 12. […]
In order to further increase the yield and proportion of CD34^+ cells, 10 μM CHIR99021 or 0.75 μM SR1 was added to the second differentiation medium of Example 1, and the proportion of CD34^+ cells in the cell population on Day 12 was detected by FACS. […]

iPSCs [2] = assay: Optimization of iNK purity and yield, flow cytometry CD56/CD45 and fold expansion; parameters: yield of HSPCs / yield of iNK cells differentiated from these HSPCs: dose or concentration left out as unconfirmed; conditions: for proportion of CD56+ or CD45+ cells / yield of iNK cells: added to fourth differentiation medium: NAD+, 0.1 ng/mL HLA-C, 1000 IU IL-2 or 15 μM SB203580; for proliferation rate of iNK cells: concentrations and media as in Example 5
Method: To further improve the differentiation efficiency and cytotoxicity of the obtained NK cells, UM171 was added to the second differentiation medium. […] The expression levels of CD56 and CD45 of the obtained NK cells and the cell fold expansion were measured by flow cytometry.
(§1) The cell expansion at the HSPC stage and the NK stage was calculated by dividing the number of suspension cells obtained at the sampling time point by the initial number of iPSCs at the spheroidization stage. The cell number was determined using the Countess™ 2 automated cell counter, and specific operating procedures can be found in the instrument's instructions.

iPSCs [3] = assay: qPCR marker expression on Day 3 of iPSC differentiation, optimization of first differentiation medium; conditions: Day 3 of differentiation, 50 ng/mL BMP4, 10 μM CHIR99021; for expression of OCT4: added to first differentiation medium (mTeSR1+5 μM Y27632), alone or combined; for expression of early mesoderm and mesoderm markers (MIXL1 and T) / expression of hemogenic endothelial lineage-related markers (KDR, SCL) / expression of the HSPC marker (CD34): added to first differentiation medium
Method: iPSCs were aggregated into spheroids by either static spheroidization or shaking spheroidization. • 1) Static spheroidization. An appropriate number of iPSCs in a single-cell state were transferred to an AggreWell™ microwell plate, and subsequent operations were carried out according to the AggreWell™ 400 or AggreWell™ 800 instructions. Briefly, the concentration of the single-cell suspension was adjusted, and sufficient volumes of the single-cell suspension were added to each well of the AggreWell™ 400 or AggreWell™ 800 to achieve approximately 500,000 iPSCs in a single-cell state per well. Then, each well was supplemented with mTeSR™1 or TeSR™-AOF medium, and 5 μM Y27632 was added to reach a total of 5 mL/well. Then, a balance plate filled with water was prepared to match the weight and position of the AggreWell™ microwell plate in the centrifuge. The cells were then pipetted gently up and down several times to ensure uniform distribution of cells across the wells. The AggreWell™ plate was immediately centrifuged at 100 g for 3 minutes using the balanced plate prepared in the previous step to force the cells into the microwells. The plate was observed under a microscope to verify that the cells were evenly distributed in the microwells. The cells were cultured under static conditions at 37° C., 5% CO2, and 95% humidity for 1 to 2 days. • 2) Shaking spheroidization. The concentration of the single-cell suspension was adjusted, and 1.5 million iPSCs in a single-cell state were transferred to a 6-well plate. Each well was supplemented with mTeSR™1 medium containing 5 μM Y27632, 50 ng/mL BMP4, and 10 μM CHIR99021 to achieve a volume of 3 mL per well. The culture plate was placed on an orbital shaker at 60 rpm, 70 rpm, 80 rpm, or 90 rpm for culture, and the wells with uniform sized spheroids were selected for subsequent culture.
The iPSCs in the single-cell state were resuspended in the following four media after harvesting: 1) mTeSR™1+5 μM Y27632, 2) mTeSR™1+5 μM Y27632+50 ng/mL BMP4, 3) mTeSR™1+5 μM Y27632+10 μM CHIR99021, and 4) mTeSR™1+5 μM Y27632+50 ng/mL BMP4+10 μM CHIR99021. The cells were then cultured according to the method in Example 1. On Day 3 of differentiation, the cells were lysed, and mRNA was extracted and reverse-transcribed to obtain cDNA. The primers in Table 2 were used to measure the expression levels of OCT4, MIXL1, T, KDR, SCL, and CD34 in HSPCs on Day 3 of differentiation under the above-mentioned media conditions.

iPSCs [4] = assay: UM171 in second and/or third differentiation medium: yield of HSPCs and iNK cells; conditions: 35 nM UM171 added to second differentiation medium
Method: 35 nM UM171 was added to the second differentiation medium and/or the third differentiation medium in Example 1, and the proportion of CD34^+ cells in the cell population on Day 12 and the proportion of CD56^+ cells in the cell population on Day 35 were detected by FACS. The results at these two time points are shown in FIG. 16, which indicate that the addition of UM171 to the second differentiation medium can increase the yield of HSPCs differentiated from iPSCs and the yield of iNK cells differentiated from HSPCs.
as §1

[5] = ABC294640 added to second and third differentiation medium

Molecule: CC(C)n1cnc2c(NCCc3ccc(O)cc3)nc(-c3csc4ccccc34)nc21 [SR1]
- proportion of CD34+ cells in the cell population (iPSCs [1]): increase

Molecule: NC(=O)c1ccc[n+]([C@@H]2O[C@H](COP(=O)([O-])OP(=O)(O)OC[C@H]3O[C@@H](n4cnc5c(N)ncnc54)[C@H](O)[C@@H]3O)[C@@H](O)[C@H]2O)c1 [NAD^+, nicotinamide adenine dinucleotide]
- proportion of CD56+ or CD45+ cells (iPSCs [2]): without affecting
- yield of iNK cells (iPSCs [2]): increase
- proliferation rate of iNK cells (iPSCs [2]): increase

Molecule: Cc1c[nH]c(-c2cnc(NCCNc3ccc(C#N)cn3)nc2-c2ccc(Cl)cc2Cl)n1 [CHIR99021]
- proportion of CD34+ cells in the cell population (iPSCs [1]): increase
- expression of OCT4 (iPSCs [3]): decreased significantly
- expression of early mesoderm and mesoderm markers (MIXL1 and T) (iPSCs [3]): began to decrease
- expression of hemogenic endothelial lineage-related markers (KDR, SCL) (iPSCs [3]): increased significantly
- expression of the HSPC marker (CD34) (iPSCs [3]): significantly increased

Molecule: C[S+]([O-])c1ccc(-c2nc(-c3ccncc3)c(-c3ccc(F)cc3)[nH]2)cc1 (stereo not drawn) [SB203580]
- proportion of CD56+ or CD45+ cells (iPSCs [2]): without affecting
- yield of iNK cells (iPSCs [2]): increase
- proliferation rate of iNK cells (iPSCs [2]): increase

Molecule: O=C(NCc1ccncc1)C12CC3CC(C1)CC(c1ccc(Cl)cc1)(C3)C2 [ABC294640]
- yield of HSPCs (iPSCs [2]; [5]): reducing
- yield of iNK cells differentiated from these HSPCs (iPSCs [2]; [5]): significantly increase
- proliferation rate of iNK cells (iPSCs [2]): increase

Molecule: Cn1nnc(-c2ccc3c(c2)[nH]c2nc(Cc4ccccc4)nc(NC4CCC(N)CC4)c23)n1 (stereo not drawn) [UM171]
- yield of HSPCs differentiated from iPSCs (iPSCs [4]; Day 12): increase
- yield of iNK cells differentiated from HSPCs (iPSCs [4]; Day 35): increase

B1: BMP4: growth factor added to the first and second differentiation medium (protein, UniProt P12644 293-408, looked up)
Bone morphogenetic protein 4: SPKHHSQRARKKNKNCRRHSLYVDFSDVGWNDWIVAPPGYQAFYCHGDCPFPLADHLNSTNHAIVQTLVNSVNSSIPKACCVPTELSAISMLYLDEYDKVVLKNYQEMVVEGCGCR
- expression of OCT4 (iPSCs [3]): decreased significantly
- expression of early mesoderm and mesoderm markers (MIXL1 and T) (iPSCs [3]): began to decrease
- expression of hemogenic endothelial lineage-related markers (KDR, SCL) (iPSCs [3]): increased significantly
- expression of the HSPC marker (CD34) (iPSCs [3]): significantly increased
